Reference: ChEMBL document CHEMBL4303097 (2020)
Structures can show the parent of a compound that is named as a salt.

Key:
[1] = test system: SARS-CoV-2; assay: Antiviral efficacy against SARS-CoV-2 (strain BavPat1) in Vero E6 cells assessed by inhibition of viral RNA replication measured by RT-PCR after 2 days; assay type: functional, organism-based, Chlorocebus sabaeus; conditions: Severe acute respiratory syndrome coronavirus 2, Vero C1008, 48 h
[2] = Selectivity index for antiviral vs cytotoxic effect in Vero E6 cells (CC50/EC50); assay type: toxicity, cell-based, Vero C1008; conditions: monkey, read-out: Selectivity index
[3] = Cytotoxicity (CC50) determination in Vero E6 cells measured by fluorescence (OD590nm); assay type: toxicity, cell-based; conditions: chlorocebus sabaeus, Vero E6 cells (Vero C1008)
[4] = test system: SARS-CoV-2; assay: Inhibition of cell viability relative to arbidol control (inhibition index > 1 indicates higher activity) measured by fluorescence (OD590nm) in Vero E6 cells infected with SARS-CoV-2 (strain BavPat1) at MOI 0.002 after 72hrs; assay type: functional; conditions: Chlorocebus sabaeus; Vero C1008

| Molecule | EC50 [1] [µM] | EC90 [1] [µM] | selectivity ratio [2] | CC50 [3] [µM] | Inhibition index [4] |
| --- | --- | --- | --- | --- | --- |
| Clc1ccc(Cn2c(CN3CCCC3)nc3ccccc32)cc1 | 23.9 | 38.2 | > 1.7 | > 40 | – |
| CC(C)CN(C[C@@H](O)[C@H](Cc1ccccc1)NC(=O)O[C@H]1CO[C@H]2OCC[C@H]21)S(=O)(=O)c1ccc(N)cc1 | > 40 | – | – | – | – |
| C=C[C@H]1CN2CC[C@H]1C[C@@H]2[C@@H](O)c1ccnc2ccc(OC)cc12 | 5.11 | > 40 | > 7.8 | > 40 | – |
| COC(c1ccccc1)(c1ccccc1)C(Oc1nc(C)cc(C)n1)C(=O)O (configuration not stated) | > 40 | – | – | – | – |
| CCCCC[C@H](O)/C=C/[C@H]1[C@H](O)CC(=O)[C@@H]1CCCCCCC(=O)O [ALPROSTADIL] | 5.39 | 62.4 | > 7.4 | > 40 | – |
| CC[C@H]1OC(=O)[C@H](C)[C@@H](O[C@H]2C[C@@](C)(OC)[C@@H](O)[C@H](C)O2)[C@H](C)[C@@H](O[C@@H]2O[C@H](C)C[C@H](N(C)C)[C@H]2O)[C@](C)(O)C[C@@H](C)CN(C)[C@H](C)[C@@H](O)[C@]1(C)O [AZITHROMYCIN] | 2.12 | – | > 19 | > 40 | – |
| C[C@@H]1CCO[C@H]2Cn3cc(C(=O)NCc4ccc(F)cc4F)c(=O)c(O)c3C(=O)N12 [DOLUTEGRAVIR] | 22 | 42.8 | > 1.8 | > 40 | – |
| CCN(CCO)CCCC(C)Nc1ccnc2cc(Cl)ccc12 (configuration not stated) [HYDROXYCHLOROQUINE SULFATE] | 4.17 | – | > 10 | > 40 | – |
| CC(C)(C)NC[C@H](O)c1ccc(O)c(CO)c1 [LEVALBUTEROL HYDROCHLORIDE] | > 40 | – | – | – | – |
| CCCc1nc(C(C)(C)O)c(C(=O)OCc2oc(=O)oc2C)n1Cc1ccc(-c2ccccc2-c2nnn[nH]2)cc1 [OLMESARTAN MEDOXOMIL] | > 40 | – | – | – | – |
| COc1ccc2[nH]c([S+]([O-])Cc3ncc(C)c(OC)c3C)nc2c1 (configuration not stated) [OMEPRAZOLE] | 17.1 | – | – | > 40 | – |
| OCCN1CCN(CCCN2c3ccccc3C=Cc3ccccc32)CC1 [OPIPRAMOL HYDROCHLORIDE] | 5.05 | – | > 7.9 | > 40 | – |
| C=CCOc1ccccc1OCC(O)CNC(C)C (configuration not stated) [OXPRENOLOL HYDROCHLORIDE] | 20.2 | > 40 | > 2 | > 40 | – |
| COc1ccccc1OCC(O)CN1CCN(CC(=O)Nc2c(C)cccc2C)CC1 (configuration not stated) [RANOLAZINE] | > 40 | – | – | – | – |
| COc1ncnc(NS(=O)(=O)c2ccc(N)cc2)c1OC [SULFADOXINE] | 35.4 | 45.1 | > 1.13 | > 40 | – |
| CCOC(=O)c1c(CSc2ccccc2)n(C)c2cc(Br)c(O)c(CN(C)C)c12 [UMIFENOVIR] | 10.7 | – | > 3.7 | > 40 | – |
| CYANOCOBALAMIN | – | – | – | – | 0.0637 |
| Gramicidin | – | – | – | – | -0.249 |
| NEOMYCIN SULFATE | – | – | – | – | 0.0953 |
| Tyloxapol | – | – | – | – | 0.101 |
